Where a name gives a salt, the structure may show the parent alone.
Experiments:
human NK2 receptor = biological target: T1, human NK2 receptor (Homo sapiens, UniProt P21452); test: Neurokinin A (NKA) receptor-binding assay (Test A), 3H-NKA binding to MEL cell membranes
T1 construct: expressed in transfected cells
T1 sequence (P21452 1-398): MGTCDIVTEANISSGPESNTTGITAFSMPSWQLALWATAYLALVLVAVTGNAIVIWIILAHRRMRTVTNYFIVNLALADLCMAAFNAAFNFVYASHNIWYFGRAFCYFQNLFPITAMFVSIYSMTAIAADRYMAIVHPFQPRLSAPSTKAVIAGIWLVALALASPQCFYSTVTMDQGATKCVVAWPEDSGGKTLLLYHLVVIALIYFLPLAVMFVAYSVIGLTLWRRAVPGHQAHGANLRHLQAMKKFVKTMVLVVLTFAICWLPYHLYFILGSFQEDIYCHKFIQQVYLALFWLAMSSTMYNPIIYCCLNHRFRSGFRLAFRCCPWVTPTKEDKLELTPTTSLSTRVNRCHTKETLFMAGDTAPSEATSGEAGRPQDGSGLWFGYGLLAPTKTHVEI
Text: Neurokinin A (NKA) Receptor-binding Assay (Test A)
Heterologous protein expression in Mouse Erythroleukemia (MEL) cells uses the human globin locus control region (LCR) (F. Grosveld et al., Cell (1987) 51, 975-985). The cDNAs are inserted between the human beta-globin promoter and the second intron of the human beta-globin gene, and this expression cassette is then placed downstream of the LCR and transfected into MEL cells (M. Needham et al., Nucl. Acids Res. (1992) 20, 997-1003). Human NK2 receptor cDNA (A. Graham et al., Biochem. Biophys. Res. Commun. (1991) 177, 8-16) was isolated from human lung RNA by polymerase chain reaction and DNA sequenced. […] These were annealed and ligated to the hNK2R fragment by standard methods. Following cleavage with Hind III, the resulting fragment was cloned into the Hind III and Bam HI sites in the polylinker of the shuttle vector pMEG3. […] Directly after transfection, cells were diluted in culture medium to 10^4 and 10^5 cell per mL and 1 mL aliquots transferred to each well of a 24-well plate.
G418 was added to a concentration of 1 mg/mL 24 hours after the transfection to select for stable transfectants. […]
Nonspecific binding is routinely defined with 1 μM NKA. […] The filters are deposited in scintillation vials and read in a Beckman LS 6000LL Scintillation Counter.

guinea pig trachea = test: Guinea pig assay (Test B), antagonism of agonist (NKA or [β-Ala8]-NKA(4-10)) contraction of tracheal rings; type: cell-based
Procedure: Guinea Pig Assay (Test B)
In the test described below either NKA or [β-Ala^8]-NKA(4-10) is used as an agonist. The chosen agonist is refered to as AG throughout the description.
Male guinea pigs are killed by a sharp blow to the back of the head. The trachea are removed, trimmed of excess tissue and divided into two segments. […] Initial tension placed on each tissue is 1 g, which is maintained throughout a 0.5 to 1.5 hour equilibration period before addition of other drugs. Contractile responses are measured on a Grass polygraph via Grass FT-03 force transducers.
Tissues are challenged repetitively with a single concentration of AG (10 nM) with intervening 30 min periods with washing to allow the tension to return to baseline levels. […] Percent inhibition is determined when a Compound produces a statistically significant (p<0.05) reduction of the contraction and is calculated using the second contractile response as 100%.
Potencies of selected Compounds are evaluated by calculating apparent dissociation constants (KB) for each concentration tested using the standard equation: […]
where dose ratio=antilog[(AG −log molar EC50 without Compound) −(AG−log molar EC50 with Compound)]. The KB values may be converted to the negative logarithms and expressed as −log molar KB (i.e. PKB). […] The EC50 values are converted to the negative logarithms and expressed as −log molar EC50. […]

Ki (human NK2 receptor; Test A, typically found) | SMILES | Kb (guinea pig trachea; Cavia porcellus, Test B, -log molar apparent dissociation constant KB) | NK2 antagonist activity in the in vitro screen (Test A) (human NK2 receptor; result in words) | NK2 antagonist activity in the functional assay (Test B) (guinea pig trachea; result in words)
4.1 nM | CN(C[C@@H](CCN1CCC(N2CCCOC2=O)CC1)c1ccc(Cl)c(Cl)c1)C(=O)c1ccccc1 [Example 2, (S)-N-[2-(3,4-Dichlorophenyl)-4-(2-oxoperhydro-1,3-oxa-zin-3-yl)piperidino]butyl]-N-methylbenzamide hydrochloride] | 2 nM |  | 
 | CN(CC(CCN1CCC(N2CCOC2=O)CC1)c1ccc(Cl)c(Cl)c1)C(=O)c1ccccc1.Cl (stereo not shown) [Example 1, N-[2-(3,4-Dichlorophenyl)-4-[4-(2-oxo-1,3-oxazolidin-3-yl)piperidino]butyl]-N-methylbenzamide hydrochoride] |  | potent NK2 antagonist | potent NK2 antagonist
